BindingDB's records for doi:10.1016/j.bmcl.2004.04.105 (Institut Henri Beaufour, 2004)
pIC50: −log10 of the molar value.

Key:
[1] = Inhibitory activity against on calpain in C6 glial cells
[2] = Inhibitory activity against on calpain 1 in C6 glial cells

| SMILES | pIC50 [1] | pIC50 [2] |
| --- | --- | --- |
| CC(C)C[C@H](NC(=O)c1ccc2c(c1)Nc1ccccc1S2)C(=O)N[C@H]1CCOC1O (some centres not stated) | 4.63 | – |
| CC(=O)OC1OCC[C@@H]1NC(=O)[C@H](CC(C)C)NC(=O)c1ccc2c(c1)Nc1ccccc1S2 (some centres not stated) | – | 4.87 |
